Entries after “also recorded” stand apart in the source; their conditions may differ.
Experiments:
GluN1/2A receptors [1] = molecular target: GluN1/2A receptors (Rattus norvegicus, UniProt P35439+Q00959); assay type: cell-based
GluN1/2A receptors [2] = molecular target: GluN1/2A receptors (Rattus norvegicus, UniProt Q00959); assay type: cell-based; conditions: ratio est Ki GluN1/2B / GluN1/2A
GluN1/2B receptors = GluN1/2B receptors (Rattus norvegicus, UniProt P35439+Q00960); assay type: cell-based
GluN1/2C receptors = GluN1/2C receptors (Rattus norvegicus, UniProt P35439+Q00961); assay type: cell-based
GluN1/2D receptors = GluN1/2D receptors (Rattus norvegicus, UniProt P35439+Q62645); assay type: cell-based
GluN1/2A = conditions: cited from earlier work
[3] = Ex vivo brain biodistribution and autoblockade of [11C]11e; assay type: in vivo, CD-1 mice; conditions: 15–75 min uptake, IV, mice (Figure 4A,B)
In vivo PET-CT imaging = experiment: In vivo PET-CT imaging; design: species or system female athymic nude mice; conditions: intravenous bolus, dynamic PET, mice
[4] = Ex vivo brain autoradiography; assay type: in vivo, female athymic nude mice; conditions: serial brain sections

GluN1/2C receptors, sequence (Q00961 20-1237, other chains not shown): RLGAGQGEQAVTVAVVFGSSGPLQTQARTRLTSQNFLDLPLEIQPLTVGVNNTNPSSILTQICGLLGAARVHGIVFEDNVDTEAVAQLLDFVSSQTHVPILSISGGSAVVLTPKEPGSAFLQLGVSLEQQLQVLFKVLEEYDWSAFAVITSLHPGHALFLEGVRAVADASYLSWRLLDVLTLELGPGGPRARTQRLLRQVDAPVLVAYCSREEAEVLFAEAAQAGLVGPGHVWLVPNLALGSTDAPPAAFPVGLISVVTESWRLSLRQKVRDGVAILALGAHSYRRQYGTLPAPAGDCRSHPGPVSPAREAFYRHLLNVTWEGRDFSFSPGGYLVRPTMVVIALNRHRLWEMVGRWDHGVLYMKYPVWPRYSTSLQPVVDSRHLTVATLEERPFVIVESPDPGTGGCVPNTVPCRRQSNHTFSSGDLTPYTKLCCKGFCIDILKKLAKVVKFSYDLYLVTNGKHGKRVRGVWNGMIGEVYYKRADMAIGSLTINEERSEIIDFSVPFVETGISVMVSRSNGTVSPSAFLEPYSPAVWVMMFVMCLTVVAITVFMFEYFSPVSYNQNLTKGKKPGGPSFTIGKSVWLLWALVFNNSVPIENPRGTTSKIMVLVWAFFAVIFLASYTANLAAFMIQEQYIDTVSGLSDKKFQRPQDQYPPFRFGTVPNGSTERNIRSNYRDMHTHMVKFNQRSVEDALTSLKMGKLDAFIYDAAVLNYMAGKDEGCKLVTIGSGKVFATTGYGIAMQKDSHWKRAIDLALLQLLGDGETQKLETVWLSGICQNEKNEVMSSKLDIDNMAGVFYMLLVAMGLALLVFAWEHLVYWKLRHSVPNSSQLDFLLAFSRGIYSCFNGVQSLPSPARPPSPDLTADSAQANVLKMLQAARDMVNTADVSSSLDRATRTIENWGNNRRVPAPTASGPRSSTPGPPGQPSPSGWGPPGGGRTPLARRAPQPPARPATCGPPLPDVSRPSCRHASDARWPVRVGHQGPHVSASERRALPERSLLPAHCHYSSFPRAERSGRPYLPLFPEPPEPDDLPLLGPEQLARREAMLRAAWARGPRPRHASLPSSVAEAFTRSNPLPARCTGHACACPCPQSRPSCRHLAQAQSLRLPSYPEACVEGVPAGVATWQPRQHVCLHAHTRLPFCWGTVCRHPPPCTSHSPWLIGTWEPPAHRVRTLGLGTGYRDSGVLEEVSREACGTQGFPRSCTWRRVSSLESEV
GluN1/2D receptors, sequence (Q62645 28-1323, other chains not shown): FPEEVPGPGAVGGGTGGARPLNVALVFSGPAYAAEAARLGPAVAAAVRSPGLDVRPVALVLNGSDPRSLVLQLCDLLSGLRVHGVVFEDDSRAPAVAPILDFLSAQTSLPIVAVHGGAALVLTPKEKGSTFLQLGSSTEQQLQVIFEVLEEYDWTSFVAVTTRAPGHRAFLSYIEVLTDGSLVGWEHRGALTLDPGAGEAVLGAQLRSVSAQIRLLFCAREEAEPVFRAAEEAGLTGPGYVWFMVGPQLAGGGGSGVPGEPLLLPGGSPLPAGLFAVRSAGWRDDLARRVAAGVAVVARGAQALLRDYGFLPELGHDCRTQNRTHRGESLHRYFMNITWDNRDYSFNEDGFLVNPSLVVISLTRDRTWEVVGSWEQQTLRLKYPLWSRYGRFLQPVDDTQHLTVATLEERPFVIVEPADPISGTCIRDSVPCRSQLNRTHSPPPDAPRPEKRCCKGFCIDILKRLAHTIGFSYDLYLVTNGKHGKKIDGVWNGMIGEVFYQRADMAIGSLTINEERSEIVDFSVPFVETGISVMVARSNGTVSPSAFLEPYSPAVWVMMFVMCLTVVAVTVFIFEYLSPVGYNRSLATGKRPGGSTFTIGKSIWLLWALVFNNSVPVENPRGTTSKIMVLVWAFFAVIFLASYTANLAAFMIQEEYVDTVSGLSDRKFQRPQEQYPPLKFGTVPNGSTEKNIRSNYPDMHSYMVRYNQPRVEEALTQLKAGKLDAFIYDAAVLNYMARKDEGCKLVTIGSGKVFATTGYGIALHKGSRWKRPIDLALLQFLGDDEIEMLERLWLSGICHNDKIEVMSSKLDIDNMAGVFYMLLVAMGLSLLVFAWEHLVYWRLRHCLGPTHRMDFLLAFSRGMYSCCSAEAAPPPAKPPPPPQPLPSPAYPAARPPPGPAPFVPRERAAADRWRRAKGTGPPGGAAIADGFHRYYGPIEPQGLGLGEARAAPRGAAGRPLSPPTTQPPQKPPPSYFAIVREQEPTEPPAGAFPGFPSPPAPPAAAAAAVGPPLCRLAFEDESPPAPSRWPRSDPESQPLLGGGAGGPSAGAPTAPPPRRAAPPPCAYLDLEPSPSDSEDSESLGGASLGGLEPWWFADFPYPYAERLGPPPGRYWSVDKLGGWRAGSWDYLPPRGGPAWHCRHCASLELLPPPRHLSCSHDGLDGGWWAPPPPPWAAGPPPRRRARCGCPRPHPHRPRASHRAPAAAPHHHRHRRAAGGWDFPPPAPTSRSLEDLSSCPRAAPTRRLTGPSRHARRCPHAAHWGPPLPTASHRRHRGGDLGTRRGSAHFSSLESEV
GluN1/2A receptors (Rattus norvegicus, UniProt Q00959), sequence (Q00959 23-1464, other chains not shown): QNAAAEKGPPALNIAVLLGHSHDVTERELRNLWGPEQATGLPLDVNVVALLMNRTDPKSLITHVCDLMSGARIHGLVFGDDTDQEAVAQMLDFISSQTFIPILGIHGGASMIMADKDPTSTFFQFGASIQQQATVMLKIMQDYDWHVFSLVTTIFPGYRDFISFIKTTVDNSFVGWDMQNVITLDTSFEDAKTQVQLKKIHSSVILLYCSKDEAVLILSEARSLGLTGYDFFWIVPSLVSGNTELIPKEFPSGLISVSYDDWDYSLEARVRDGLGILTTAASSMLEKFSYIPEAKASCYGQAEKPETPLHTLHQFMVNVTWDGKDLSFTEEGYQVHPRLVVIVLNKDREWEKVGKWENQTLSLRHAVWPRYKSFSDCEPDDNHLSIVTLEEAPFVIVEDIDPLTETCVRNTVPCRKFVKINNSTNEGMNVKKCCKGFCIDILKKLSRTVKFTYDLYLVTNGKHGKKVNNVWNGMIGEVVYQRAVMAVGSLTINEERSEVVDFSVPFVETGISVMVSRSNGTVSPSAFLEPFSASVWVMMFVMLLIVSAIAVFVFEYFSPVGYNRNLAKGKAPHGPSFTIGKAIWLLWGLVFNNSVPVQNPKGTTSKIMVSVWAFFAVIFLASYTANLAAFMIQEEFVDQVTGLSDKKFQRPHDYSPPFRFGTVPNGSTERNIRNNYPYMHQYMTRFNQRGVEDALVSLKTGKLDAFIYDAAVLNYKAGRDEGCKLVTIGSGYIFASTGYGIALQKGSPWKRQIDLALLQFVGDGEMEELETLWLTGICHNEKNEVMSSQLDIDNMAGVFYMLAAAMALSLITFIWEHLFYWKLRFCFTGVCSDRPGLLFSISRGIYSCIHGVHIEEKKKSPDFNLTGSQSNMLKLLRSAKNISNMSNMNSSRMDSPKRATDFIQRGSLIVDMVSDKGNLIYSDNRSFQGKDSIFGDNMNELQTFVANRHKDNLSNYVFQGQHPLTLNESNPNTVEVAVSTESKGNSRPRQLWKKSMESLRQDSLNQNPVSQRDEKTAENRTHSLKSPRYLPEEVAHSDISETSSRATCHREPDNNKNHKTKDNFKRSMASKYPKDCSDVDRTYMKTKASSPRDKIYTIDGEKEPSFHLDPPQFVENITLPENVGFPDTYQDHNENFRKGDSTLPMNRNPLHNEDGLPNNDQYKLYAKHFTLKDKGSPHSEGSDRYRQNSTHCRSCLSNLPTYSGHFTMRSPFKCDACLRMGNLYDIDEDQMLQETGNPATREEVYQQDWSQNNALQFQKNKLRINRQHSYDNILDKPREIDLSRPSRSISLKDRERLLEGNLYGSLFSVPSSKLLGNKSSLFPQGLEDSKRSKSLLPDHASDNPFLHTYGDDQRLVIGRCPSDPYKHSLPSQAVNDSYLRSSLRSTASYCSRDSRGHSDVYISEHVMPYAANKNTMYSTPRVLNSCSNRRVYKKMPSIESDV

IC50 (GluN1/2A receptors [1]) [nM] | Ki (GluN1/2A receptors [1]) [nM] | estimated Ki fold higher at GluN1/2B compared to GluN1/2A (selectivity) (GluN1/2A receptors [2]) [fold] | IC50 (GluN1/2B receptors) [nM] | Ki (GluN1/2B receptors) [nM] | IC50 (GluN1/2C receptors) [nM] | Ki (GluN1/2C receptors) [nM] | IC50 (GluN1/2D receptors) [nM] | Ki (GluN1/2D receptors) [nM] | SMILES | further results
160 ± 10 | 43 ± 2 | 7.6 | 860 ± 10 | 330 ± 40 | 920 ± 20 | 230 ± 10 | 920 ± 20 | 290 ± 10 | N[C@H](C[C@H]1CC(C(=O)O)=NN1c1ccc(F)cc1)C(=O)O [4a, (S)-5-((R)-2-Amino-2-carboxyethyl)-1-(4-fluorophenyl)-4,5-dihydro-1H-pyrazole-3-carboxylic Acid] | –
98 ± 4 | 27 ± 1 | 4.0 | 280 ± 20 | 110 ± 10 | 180 ± 10 | 44 ± 2 | 520 ± 20 | 160 ± 10 | N[C@H](C[C@H]1CC(C(=O)O)=NN1c1ccc(Cl)cc1)C(=O)O [4b, (S)-5-((R)-2-Amino-2-carboxyethyl)-1-(4-chlorophenyl)-4,5-dihydro-1H-pyrazole-3-carboxylic Acid] | –
91 ± 4 | 25 ± 1 | – | 250 ± 20 | 94 ± 7 | 190 ± 10 | 47 ± 3 | 630 ± 40 | 200 ± 10 | N[C@H](C[C@H]1CC(C(=O)O)=NN1c1ccc(Br)cc1)C(=O)O [4c, (S)-5-((R)-2-Amino-2-carboxyethyl)-1-(4-bromophenyl)-4,5-dihydro-1H-pyrazole-3-carboxylic Acid] | –
910 ± 80 | 250 ± 20 | – | 700 ± 40 | 270 ± 20 | 560 ± 20 | 140 ± 10 | – | – | N[C@H](C[C@H]1CC(C(=O)O)=NN1c1ccc(I)cc1)C(=O)O [4d, (S)-5-((R)-2-Amino-2-carboxyethyl)-1-(4-iodophenyl)-4,5-dihydro-1H-pyrazole-3-carboxylic Acid] | –
180 ± 10 | 48 ± 3 | 5.3 | 690 ± 50 | 250 ± 20 | 380 ± 20 | 96 ± 5 | – | 440 ± 20 | Cc1ccc(N2N=C(C(=O)O)C[C@@H]2C[C@@H](N)C(=O)O)cc1 [4e, (S)-5-((R)-2-Amino-2-carboxyethyl)-1-p-tolyl-4,5-dihydro-1H-pyrazole-3-carboxylic Acid] | –

Second part, the compound before the results:

SMILES | IC50 (GluN1/2A receptors [1]) [nM] | Ki (GluN1/2A receptors [1]) [nM] | estimated Ki fold higher at GluN1/2B compared to GluN1/2A (selectivity) (GluN1/2A receptors [2]) [fold] | IC50 (GluN1/2B receptors) [nM] | Ki (GluN1/2B receptors) [nM] | IC50 (GluN1/2C receptors) [nM] | Ki (GluN1/2C receptors) [nM] | IC50 (GluN1/2D receptors) [nM] | Ki (GluN1/2D receptors) [nM] | further results
C[C@H](N[C@@H](c1cccc2[nH]c(=O)c(=O)[nH]c12)P(=O)(O)O)c1ccc(Br)cc1 [NVP-AAM077, [(R)-[(S)-1-(4-bromophenyl)-ethylamino]-(2,3-dioxo-1,2,3,4-tetrahydroquinoxalin-5-yl)-methyl]-phosphonic acid] | – | – | – | – | – | – | – | – | – | binding affinity fold higher for GluN1/2A compared to GluN1/2B (GluN1/2A): 5.2 fold
COC(=O)C1=NN(c2ccc([11CH3])cc2)[C@@H](C[C@@H](NC(=O)OC(C)(C)C)C(=O)OC)C1 [[^11C]11e, Methyl (S)-5-((R)-2-((tert-Butoxycarbonyl)amino)-3-methoxy-3-oxopropyl)-1-(4-[^11C]methylphenyl)-4,5-dihydro-1H-pyrazole-3-carboxylate] | – | – | – | – | – | – | – | – | – | uptake in brain regions [3]: below 1.5 % ID/g
COC(=O)C1=NN(c2ccc([124I])cc2)[C@@H](C[C@@H](N)C(=O)OC)C1 [[^124I]11d, Methyl (S)-5-((R)-2-Amino-3-methoxy-3-oxopropyl)-1-(4-[^124I]-iodophenyl)-4,5-dihydro-1H-pyrazole-3-carboxylate] | – | – | – | – | – | – | – | – | – | brain uptake by in vivo PET imaging (In vivo PET-CT imaging): below the threshold of detection; also recorded: no observable brain uptake
N[C@H](C[C@H]1CC(C(=O)O)=NN1c1ccc([125I])cc1)C(=O)O [[^125I]4d, (S)-5-((R)-2-Amino-2-carboxyethyl)-1-(4-[^125I]iodophenyl)-4,5-dihydro-1H-pyrazole-3-carboxylic Acid] | – | – | – | – | – | – | – | – | – | brain uptake (ex vivo autoradiography) ([4]; 60 min conscious uptake): no evidence of brain uptake
COC(=O)C1=NN(c2ccc([125I])cc2)[C@@H](C[C@@H](N)C(=O)OC)C1 [[^125I]11d, Methyl (S)-5-((R)-2-Amino-3-methoxy-3-oxopropyl)-1-(4-[^125I]-iodophenyl)-4,5-dihydro-1H-pyrazole-3-carboxylate] | – | – | – | – | – | – | – | – | – | brain uptake (ex vivo autoradiography) ([4]; 40 min conscious uptake): brain region-selective uptake
